In US4863935A, “Mitomycin compounds having useful anti-tumor activity” (priority 1986, dated 1989):

How the values were obtained:
[1] = LD50 acute toxicity, ddy mice, single abdominal injection; conditions: mouse, in vivo, ip, 5 ddy mice, 14 days observation, Behrens-Koerber's method
From the text: (§1) As used herein, the term "LD50 " denotes the acute toxicity. The term "ED50 " denotes the administered amount needed for reducing the volume of Sarcoma 180 solid tumours in animals to 50% of the corresponding tumour volume in control (untreated) animals. The term "WBC4000 " denotes the minimum dose of the drug needed to reduce the number of peripheral leucocytes to 4000/mm^3. A greater TI value results in a broader tolerance to the drug, which is advantageous for higher anti-tumour activity and decreased toxicity. The term "T" used herein denotes the average survival days of the test animals administered with the test compound. The term "C" denotes the average survival days of the control (untreated) animals. The term "OPD" denotes the dose of the drug resulting in the highest survival ratio. The term "ILS30 " denotes a 30% increase of life-span.
LD50, ED50 and WBC4000 were respectively determined as follows:
Each animal of the test group, consisting of 5 ddy mice, was administered once with a test compound by abdominal injection. […] To determine the LD50 value, Behrens-Koerber's method was applied.

Sarcoma 180 solid tumour = test: ED50 against Sarcoma 180 solid tumour implanted in mice; assay type: in vivo, male mouse (ddy strain); conditions: for (CI)c: (CI of test compound)/(CI of mitomycin C), CI = LD50/ED50; for ED50: Mus musculus, Sarcoma-180, iv, 168 h, i.v. (tail vein) 24 h after implantation, tumour volume at 7 days, dose for T/C of 0.5
From the text: With regard to the so-called chemotherapeutic index viz. the CI value against sarcoma 180 solid tumour, expressed by the formula: […]
as §1
the term (CI)c denotes (CI of the test compound)/(CI of mitomycin C), and
5×10^6 sarcoma 180 solid tumor cells were abdominally implanted into ddy mice. 7 days after this, ascites cells were sampled. The cells were washed once with a sterilized physiological saline and were used to prepare a cell suspension containing 5×10^7 cells per ml of a sterilized physiological saline. On each occasion, 0.1 ml of the cell suspension was subcutaneously implanted under the skin of the right armpit of a male mouse (ddy strain; body weight 20±2 g). The test compound which was dissolved in a physiological saline with or without addition of Tween 80 was injected into the tail vein of each animal of a group consisting of 5 mice at a dose of 0.1-0.2 ml 24 hours after the implantation of the tumor cells.
The anti-tumor activity was determined in the following manner:
7 days after the implantation, the major axis (a) and the minor axis (b) of the tumour were measured to calculate a value of (a×b^2)/2 which corresponds to the volume of the tumour. The antitumour activity was expressed by the ratio of the volume of the tumour (T) of the group of animals administered with the test compound to the corresponding volume of tumours (C) of the untreated animals.
On graph paper, T/C was plotted on the ordinate using an arithmetic scale and the administered amount of test compound was plotted on the abscissa using a logarithmic scale. The relationship between the dose and T/C was shown by a straight line determined by the method of least squares, from which ED50 viz. a dose corresponding to T/C of 0.5 was obtained.

[2] = tested on: lymphocytic Leukemia P-388; test: Anti-tumour activity against lymphocytic Leukemia P-388 in mice; assay type: in vivo, mouse, female of CDF strain; conditions: for (ILSmax)c: (ILSmax of test compound)/(ILSmax of mitomycin C), ILS=(T-C)/C×100; for (TI)c: (TI of test compound)/(TI of mitomycin C), TI = OPD/dose which results in ILS30; for ED (optimal dose, highest survival) / ED (30% increase of life-span): Mus musculus, P388, ip, i.p. 24 h after implantation; for ED (optimal dose, highest survival): dose resulting in the highest survival ratio, 30 days, read-out: OPD; for ED (30% increase of life-span): read-out: Dose needed to give ILS30
From the text: Also, their therapeutic indexes, expressed by the formula:
TI=(OPD)/(dose which results in ILS30),
against lymphocytic Leukemia P-388 and the maximum increased life spans (ILSmax), defined by the formula: […]
as §1
The experiment was carried out in the following manner. 1×10^6 lymphocytic Leukemia P-388 tumour cells were abdominally implanted into each mouse of a group consisting of 5 mice (body weight about 22 g; female of CDF strain). 24 hours after implantation, a physiological saline solution (0.2 ml) containing the test compound with or without addition of Tween 80 was abdominally given to the test animal.
Table 7 indicates anti-tumour activities of selected Compounds (I) against lyphocytic Leukemia P-388.

tumour = conditions: background statement; cited from earlier work
bone marrow = conditions: background statement; cited from earlier work

| SMILES | LD50 at 336 h [1] | (CI)c (Sarcoma 180 solid tumour) | ED50 (Sarcoma 180 solid tumour) | (ILSmax)c [2] | (TI)c [2] | ED (optimal dose, highest survival) [2] | ED (30% increase of life-span) [2] | anti-tumour activity (tumour) | toxicity to bone marrow (bone marrow) |
| --- | --- | --- | --- | --- | --- | --- | --- | --- | --- |
| CCCNC(=O)SCCNC1=C(C)C(=O)C2=C(C1=O)[C@@H](COC(N)=O)[C@@]1(OC)[C@H]3N[C@H]3CN21 [Compound 27, 7-N--(2-n-propylaminocarbonylthioethyl)mitomycin C] | 37.5 mg/kg | 1.33 | 11.1 mg/kg | 1.84 | 3.11 | 25 mg/kg | 0.67 mg/kg |  |  |
| CO[C@@]12[C@H](COC(N)=O)C3=C(C(=O)C(C)=C(NCCSC(=O)NC4CCCCC4)C3=O)N1C[C@@H]1N[C@@H]12 [Compound 29, 7-N--(2-cyclohexylaminocarbonylthioethyl)mitomycin C] | 43.8 mg/kg | 1.43 | 12 mg/kg | 1.69 | 2.45 | 25 mg/kg | 0.85 mg/kg |  |  |
| CCC(C)NC(=O)SCCNC1=C(C)C(=O)C2=C(C1=O)[C@@H](COC(N)=O)[C@@]1(OC)[C@H]3N[C@H]3CN21 (stereo partly shown) [Compound 30, 7-N--(2-sec-butylaminocarbonylthioethyl)mitomycin C] | 37.5 mg/kg | 1.53 | 9.6 mg/kg | 1.60 | 3.20 | 25 mg/kg | 0.65 mg/kg |  |  |
| COC(=O)[C@H]1CCCN1C(=O)SCCNC1=C(C)C(=O)C2=C(C1=O)[C@@H](COC(N)=O)[C@@]1(OC)[C@H]3N[C@H]3CN21 [Compound 32, 7-N--[2-((S)--2-methoxycarbonylpyrrolidino)carbonylthioethyl]mitomycin C] | 67.5 mg/kg | 1.48 | 17.9 mg/kg | 1.40 | 2.14 | 37.5 mg/kg | 1.67 mg/kg |  |  |
| CCNC(=S)SCCNC1=C(C)C(=O)C2=C(C1=O)[C@@H](COC(N)=O)[C@@]1(OC)[C@H]3N[C@H]3CN21 [Compound 39, 7-N--(2-ethylaminothiocarbonylthioethyl)mitomycin C] | 45 mg/kg | 2.40 | 7.8 mg/kg | > 1.60 | 2.74 | 25 mg/kg | 0.57 mg/kg |  |  |
| CO[C@@]12[C@H](COC(N)=O)C3=C(C(=O)C(C)=C(N)C3=O)N1C[C@@H]1N[C@@H]12 [mitomycin C] |  |  |  |  |  |  |  | strong anti-tumour activity | strong toxicity to bone marrow |
